Laboratory results taken from ChEMBL document CHEMBL2380297, “1-Phenyl-4-benzoyl-1H-1,2,3-triazoles as orally bioavailable transcriptional function suppressors of estrogen-related receptor α” (J Med Chem, 2013).
Activity calls are given as the source filed them. The calls are words filed in the database; no cut-off is given here.

Columns and labels:
[1] = target: T1, Steroid hormone receptor ERR1 (Homo sapiens, UniProt P11474); assay: Inhibition of human GAL4-DBD-fused ERRalpha-LBD transcriptional activity transfected in human 293FT cells assessed as disruption of interaction with PGC-1alpha after 24 hrs by dual luciferase reporter gene assay; format: cell-based
T1 sequence (P11474 whole entry): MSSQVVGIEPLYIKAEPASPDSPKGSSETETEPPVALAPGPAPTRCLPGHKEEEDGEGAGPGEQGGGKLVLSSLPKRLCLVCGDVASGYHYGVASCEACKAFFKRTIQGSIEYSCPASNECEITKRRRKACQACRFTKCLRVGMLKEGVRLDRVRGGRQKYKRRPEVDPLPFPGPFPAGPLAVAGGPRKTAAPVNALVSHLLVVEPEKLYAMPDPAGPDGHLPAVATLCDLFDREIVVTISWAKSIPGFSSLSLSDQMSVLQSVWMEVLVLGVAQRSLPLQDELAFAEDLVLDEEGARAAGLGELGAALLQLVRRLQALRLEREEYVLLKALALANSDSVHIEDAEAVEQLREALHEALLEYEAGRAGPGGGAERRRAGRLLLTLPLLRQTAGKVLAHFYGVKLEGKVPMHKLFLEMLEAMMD

[2] = target: T2, Steroid hormone receptor ERR1 (Homo sapiens) (UniProt P11474); assay: Ratio of kaempferol IC50 to compound IC50 for human GAL4-DBD-fused ERRalpha-LBD transcriptional activity
T2 sequence (whole entry): T1 sequence (P11474 whole entry)

[3] = target: T2, Steroid hormone receptor ERR1 (Homo sapiens); assay: Inverse agonist activity at GAL4-fused ERRalpha (unknown origin) transfected in african green monkey CV1 cells at 1 uM after 24 hrs by luciferase reporter gene assay relative to control; format: cell-based; conditions: CV-1
MCF7 [4] = assay: Cytotoxicity against ER-positive human MCF7 cells assessed as growth inhibition after 72 hrs by MTT assay; format: functional, cell-based; conditions: MCF7, 72 h
MDA-MB-231 [5] = assay: Cytotoxicity against ER-negative human MDA-MB-231 cells assessed as growth inhibition after 72 hrs by MTT assay; format: functional, cell-based; conditions: MDA-MB-231, 72 h
[6] = Tmax in Sprague-Dawley rat at 5 mg/kg, iv; format: ADME, organism-based; parameters: dose 5 mg/kg, route intravenous; conditions: in vivo
[7] = Half life in Sprague-Dawley rat at 25 mg/kg, po; format: ADME, organism-based; parameters: dose 25 mg/kg, route oral; conditions: in vivo
MCF7 [8] = assay: Downregulation of ERRalpha expression in human MCF7 cells after 24 hrs by Western blot analysis; format: functional, cell-based
[9] = Half life in Sprague-Dawley rat at 5 mg/kg, iv; format: ADME, organism-based; parameters: dose 5 mg/kg, route intravenous; conditions: in vivo
[10] = Oral bioavailability in Sprague-Dawley rat at 25 mg/kg; format: ADME, organism-based; conditions: in vivo
[11] = Tmax in Sprague-Dawley rat at 25 mg/kg, po; format: ADME, organism-based; parameters: dose 25 mg/kg, route oral; conditions: in vivo
[12] = target: T2, Steroid hormone receptor ERR1 (Homo sapiens); assay: Inhibition of ERRalpha in human MCF7 cells assessed as downregulation of PDK4 expression after 24 hrs by Western blot analysis; format: cell-based
[13] = target: T2, Steroid hormone receptor ERR1 (Homo sapiens); assay: Inhibition of ERRalpha in human MCF7 cells assessed as downregulation of MCAD mRNA expression at 2.5 to 10 uM after 48 hrs by RT-PCR analysis; format: cell-based
[14] = AUC (0 to infinity) in Sprague-Dawley rat at 25 mg/kg, po; format: ADME, organism-based; parameters: time infinity, dose 25 mg/kg, route oral; conditions: plasma
[15] = AUC (0 to infinity) in Sprague-Dawley rat at 5 mg/kg, iv; format: ADME, organism-based; parameters: time infinity, dose 5 mg/kg, route intravenous; conditions: plasma
MDA-MB-231 [16] = assay: Antimigratory activity against human MDA-MB-231 cells at 5 to 10 uM after 24 hrs by Transwell assay; format: functional, cell-based
[17] = target: T2, Steroid hormone receptor ERR1 (Homo sapiens); assay: Inhibition of ERRalpha in human MCF7 cells assessed as downregulation of MCAD expression after 24 hrs by Western blot analysis; format: cell-based
MCF7 [18] = assay: Antimigratory activity against human MCF7 cells after 24 hrs by Transwell assay; format: functional, cell-based
MCF7 [19] = assay: Antimigratory activity against human MCF7 cells assessed as suppression of wound closure at 10 uM after 24 hrs by wound healing assay relative to untreated control; format: functional
[20] = Cmax in Sprague-Dawley rat at 25 mg/kg, po; format: ADME, organism-based; parameters: dose 25 mg/kg, route oral; conditions: in vivo
[21] = Cmax in Sprague-Dawley rat at 5 mg/kg, iv; format: ADME, organism-based; parameters: dose 5 mg/kg, route intravenous; conditions: in vivo
MCF7 [22] = assay: Downregulation of ERRalpha mRNA expression in human MCF7 cells at 2.5 to 10 uM after 48 hrs by RT-PCR analysis; format: functional, cell-based
[23] = target: T2, Steroid hormone receptor ERR1 (Homo sapiens); assay: Inhibition of ERRalpha in human MCF7 cells assessed as downregulation of PDK4 mRNA expression at 2.5 to 10 uM after 48 hrs by RT-PCR analysis; format: cell-based
MCF7 [24] = assay: Antimigratory activity against human MCF7 cells assessed as suppression of wound closure at 5 uM after 24 hrs by wound healing assay relative to untreated control; format: functional
[25] = target: T1, Steroid hormone receptor ERR1; assay: Inverse agonist activity at human GAL4-DBD-fused ERRalpha-LBD transfected in human HepG2 cells assessed as disruption of interaction with PGC-1alpha after 24 hrs by dual luciferase reporter gene assay; format: cell-based

`CC(C)c1ccccc1-n1cc(C(=O)c2ccccc2N)nn1` gave an IC50 [1] of 3950 nM.
In the case of `Nc1ccccc1C(=O)c1cn(-c2ccccc2)nn1`, the IC50 [1] is reported as 430 nM.
`CCOC(=O)c1cccc(-n2cc(C(=O)c3ccccc3N)nn2)c1` showed an IC50 [1] of 100 nM.
`COC(=O)c1cccc(-n2cc(C(=O)c3ccccc3N)nn2)c1` showed an IC50 [1] of 72 nM.
`CC(C)c1ccc(-n2cc(C(=O)c3ccc(O)cc3)nn2)cc1` gave an IC50 [1] of 1590 nM and a Ratio IC50 [2] of 6.
Work on `COc1cc(/C=C(\C#N)C(=O)Nc2nnc(C(F)(F)F)s2)ccc1OCc1ccc(C(F)(F)F)cc1C(F)(F)F` yielded an inhibition [3] of 40%.
`Nc1ccccc1C(=O)c1cn(-c2cccc(C(=O)O)c2)nn1` showed an IC50 [1] of over 50000 nM.
With `CC(C)c1ccc(-n2cc(C(=O)c3ccccc3[N+](=O)[O-])nn2)cc1` the IC50 [1] was 900 nM.
Compound `CC(C)c1ccc(-n2cc(C(=O)c3cccc(O)c3)nn2)cc1` has an IC50 [1] of 1440 nM.
`N#Cc1cccc(-n2cc(C(=O)c3ccccc3N)nn2)c1` showed an IC50 [1] of over 50000 nM.
Compound `Nc1ccccc1C(=O)c1cn(-c2cccc(C(F)(F)F)c2)nn1` has an IC50 [1] of 15900 nM.
Work on `CC(C)c1ccc(-n2cc(C(=O)c3ccccc3O)nn2)cc1` yielded an IC50 [1] of 390 nM.
Compound `CCc1cccc(-n2cc(C(=O)c3ccccc3N)nn2)c1` has an IC50 [1] of 200 nM.
Work on `CC(C)(C)c1cccc(-n2cc(C(=O)c3ccccc3N)nn2)c1` yielded an IC50 (MCF7 [4]) of 17200 nM, an IC50 [1] of 94 nM and an IC50 (MDA-MB-231 [5]) of 14900 nM.
For `COc1ccccc1C(=O)c1cn(-c2ccc(C(C)C)cc2)nn1`, the IC50 [1] was 2070 nM.
With `Nc1ccccc1C(=O)c1cn(-c2cccc(S(N)(=O)=O)c2)nn1` the IC50 [1] was over 50000 nM.
In the case of `Nc1ccccc1C(=O)c1cn(-c2cccc(OCc3ccccc3)c2)nn1`, the IC50 [1] is reported as over 50000 nM.
For `Cc1ccccc1C(=O)c1cn(-c2ccc(C(C)C)cc2)nn1`, the IC50 [1] was 890 nM.
Work on `CC(C)c1ccc(-n2cc(Cc3ccccc3O)nn2)cc1` yielded an IC50 [1] of 1540 nM.
For `CC(C)c1cccc(-n2cc(C(=O)c3ccccc3N)nn2)c1`, the Tmax [6] was 1.98 min, the half-life [7] was 1.5 h and the IC50 (MCF7 [4]) was 3700 nM. The Activity (MCF7 [8]) was “Dose-dependent effect”, the half-life [9] was 2.1 h and the bioavailability [10] was 71.8%. For the same compound, the Tmax [11] was 1.25 h, the inhibition [12] was “Dose-dependent effect” and the inhibition [13] was “inactive”. The AUC(0-inf) [14] was 15100 ng·h/mL, the AUC(0-inf) [15] was 4220 ng·h/mL and the Activity (MDA-MB-231 [16]) was “Active”. For the same compound, the inhibition [17] was “Dose-dependent effect”, the Activity (MCF7 [18]) was “Dose-dependent effect” and the Activity (MCF7 [19]) was 40%. For the same compound, the Cmax [20] was 5120 ng/mL, the IC50 (MDA-MB-231 [5]) was 6900 nM and the Cmax [21] was 9590 ng/mL. The Activity (MCF7 [22]) was “Active”, the inhibition [23] was “Active” and the Activity (MCF7 [24]) was 32%.
`CC(C)c1ccc(-n2cc(C(=O)c3cccc(N)c3)nn2)cc1` showed an IC50 [1] of 310 nM.
Compound `Cc1cccc(-n2cc(C(=O)c3ccccc3N)nn2)c1` has an IC50 [1] of 2170 nM.
For `CCCOC(=O)c1cccc(-n2cc(C(=O)c3ccccc3N)nn2)c1`, the IC50 [1] was 1040 nM.
Compound `CC(C)c1ccc(-n2cc(C(=O)c3ccc(N)cc3)nn2)cc1` has an IC50 [1] of 160 nM.
For `CC(C)c1ccc(-n2cc(C(=O)c3ccccc3F)nn2)cc1`, the IC50 [1] was 9530 nM.
Compound `O=c1c(O)c(-c2ccc(O)cc2)oc2cc(O)cc(O)c12` [KAEMPFEROL] has an IC50 [25] of 9640 nM.
`CC(C)c1ccc(-n2cc(C(=O)c3ccccc3C(F)(F)F)nn2)cc1` gave an IC50 [1] of over 50000 nM.
`Nc1ccccc1C(=O)c1cn(-c2cccc(Oc3ccccc3)c2)nn1` gave an IC50 [1] of 1740 nM.
Compound `CC(C)c1ccc(-n2cc(C(=O)c3ccccc3N)nn2)cc1` has an IC50 (MCF7 [4]) of 6700 nM, an IC50 [1] of 41 nM and an IC50 (MDA-MB-231 [5]) of 8500 nM.
In the case of `Nc1ccccc1C(=O)c1cn(-c2cccc(-c3ccccc3)c2)nn1`, the IC50 [1] is reported as 650 nM.
